Source: patent US20240350447A1, “DELIVERY METHODS FOR TREATING BRAIN AND CENTRAL NERVOUS SYSTEM DISEASES” (JENIVISION INC., priority 2021, published 2024)
Read-outs that look alike come from different tables or passages of the source.

Assay: Biodistribution of DHA after periorbital skin (NIODP) application to one eye
Assay type: in vivo, Cynomolgus monkeys
Conditions: for DHA in cornea / DHA in upper eyelid / DHA in vitreous humor / Retina/Upper eyelid ratio of DHA / concentration at 0.5 h / concentration at 3 h / concentration at 6 h / concentration at 24 h / concentration at 0 h / OD/OS retina ratio of DHA: 6755.1 μg to OS via NIODP; for concentration at 0.5 h / concentration at 3 h / concentration at 6 h / concentration at 24 h / concentration at 0 h / Kp: cynomolgus monkey; for OD/OS retina ratio of DHA: undosed/dosed retina
Description: An experiment was performed to determine the biodisposition of DHA following topical application to the periorbital skin that surrounds the anterior portion of the globe was performed.
Docosahexaenoic acid (DHA) is an omega-3 fatty acid and an essential component for neuronal formation, function and protection. […] […] High concentrations of DHA (from 35.6 to 97.3 μg/g) were detected in the undoes retina, which is similar to the dosed retina.
Moreover, compared to the baseline retina/plasma ratio of 7-fold, and with no significant changes in plasma, the retina/plasma ratios of DHA in the undosed eye were at least 30-fold at each post dose timepoint, signifying that the undosed retina uptake of DHA was not from blood circulation.

[1] = OD (undosed eye), 0 h (baseline)

DHA in the undosed right cornea and vitreous humor (DHA to OS via NIODP): No DHA was detectable | DHA in cornea [1]: BLQ | DHA in upper eyelid [1]: BLQ | DHA in vitreous humor [1]: BLQ | Retina/Upper eyelid ratio of DHA (OD (undosed eye), 0.5 h): 172% | Retina/Upper eyelid ratio of DHA (OD (undosed eye), 3 h): 1678% | Retina/Upper eyelid ratio of DHA (OD (undosed eye), 6 h): 1057% | Retina/Upper eyelid ratio of DHA (OD (undosed eye), 24 h): 672% | DHA in cornea (OS (dosed eye), 0 h (baseline)): BLQ | DHA in upper eyelid (OS (dosed eye), 0 h (baseline)): BLQ | DHA in vitreous humor (OS (dosed eye), 0 h (baseline)): BLQ | Retina/Upper eyelid ratio of DHA (OS (dosed eye), 0.5 h): 29% | Retina/Upper eyelid ratio of DHA (OS (dosed eye), 3 h): 16% | Retina/Upper eyelid ratio of DHA (OS (dosed eye), 6 h): 735% | Retina/Upper eyelid ratio of DHA (OS (dosed eye), 24 h): 292% | concentration at 0.5 h (cornea of the undosed right eye (OD), topical, OD (undosed eye), 0.5 h, read-out: DHA in cornea): 0 ng/g | concentration at 3 h (cornea of the undosed right eye (OD), topical, OD (undosed eye), 3 h, read-out: DHA in cornea): 0 ng/g | concentration at 6 h (cornea of the undosed right eye (OD), topical, OD (undosed eye), 6 h, read-out: DHA in cornea): 0 ng/g | concentration at 24 h (cornea of the undosed right eye (OD), topical, OD (undosed eye), 24 h, read-out: DHA in cornea): 0 ng/g | concentration at 0 h (plasma, topical, 0 h (baseline), read-out: DHA in plasma): 2400 ng/mL | concentration at 0.5 h (plasma, topical, 0.5 h post dose, read-out: DHA in plasma): 2200 ng/mL | concentration at 3 h (plasma, topical, 3 h post dose, read-out: DHA in plasma): 3100 ng/mL | concentration at 6 h (plasma, topical, 6 h post dose, read-out: DHA in plasma): 2100 ng/mL | concentration at 24 h (plasma, topical, 24 h post dose, read-out: DHA in plasma): 1200 ng/mL | Kp (retina / plasma, baseline (before dosing), read-out: Baseline retina/plasma ratio of DHA): 7 | concentration at 0 h (retina of the dosed left eye (OS), topical, OS (dosed eye), 0 h (baseline), read-out: DHA in retina): 16500 ng/g | Kp (retina of the undosed eye / plasma, topical, 6775.1 μg/eye, each post dose timepoint, DHA to OS via NIODP, read-out: Retina/plasma ratio of DHA in the undosed eye): ≥ 30 | concentration at 0 h (retina of the undosed right eye (OD), topical, OD (undosed eye), 0 h (baseline), read-out: DHA in retina): 16500 ng/g | concentration at 0.5 h (retina of the undosed right eye (OD), topical, OD (undosed eye), 0.5 h, read-out: DHA in retina): 70800 ng/g | concentration at 3 h (retina of the undosed right eye (OD), topical, OD (undosed eye), 3 h, read-out: DHA in retina): 97300 ng/g | concentration at 6 h (retina of the undosed right eye (OD), topical, OD (undosed eye), 6 h, read-out: DHA in retina): 78200 ng/g | concentration at 24 h (retina of the undosed right eye (OD), topical, OD (undosed eye), 24 h, read-out: DHA in retina): 35600 ng/g | concentration at 0.5 h (upper eyelid of the undosed right eye (OD), topical, OD (undosed eye), 0.5 h, read-out: DHA in upper eyelid): 41100 ng/g | concentration at 3 h (upper eyelid of the undosed right eye (OD), topical, OD (undosed eye), 3 h, read-out: DHA in upper eyelid): 5800 ng/g | concentration at 6 h (upper eyelid of the undosed right eye (OD), topical, OD (undosed eye), 6 h, read-out: DHA in upper eyelid): 7400 ng/g | concentration at 24 h (upper eyelid of the undosed right eye (OD), topical, OD (undosed eye), 24 h, read-out: DHA in upper eyelid): 5300 ng/g | concentration at 0.5 h (vitreous humor of the dosed left eye (OS), topical, OS (dosed eye), 0.5 h, read-out: DHA in vitreous humor): 0 ng/mL | concentration at 3 h (vitreous humor of the dosed left eye (OS), topical, OS (dosed eye), 3 h, read-out: DHA in vitreous humor): 0 ng/mL | concentration at 6 h (vitreous humor of the dosed left eye (OS), topical, OS (dosed eye), 6 h, read-out: DHA in vitreous humor): 0 ng/mL | concentration at 24 h (vitreous humor of the dosed left eye (OS), topical, OS (dosed eye), 24 h, read-out: DHA in vitreous humor): 0 ng/mL | concentration at 0.5 h (vitreous humor of the undosed right eye (OD), topical, OD (undosed eye), 0.5 h, read-out: DHA in vitreous humor): 0 ng/mL | concentration at 3 h (vitreous humor of the undosed right eye (OD), topical, OD (undosed eye), 3 h, read-out: DHA in vitreous humor): 0 ng/mL | concentration at 6 h (vitreous humor of the undosed right eye (OD), topical, OD (undosed eye), 6 h, read-out: DHA in vitreous humor): 0 ng/mL | concentration at 24 h (vitreous humor of the undosed right eye (OD), topical, OD (undosed eye), 24 h, read-out: DHA in vitreous humor): 0 ng/mL | OD/OS retina ratio of DHA (0 h (baseline)): 100% | OD/OS retina ratio of DHA (0.5 h): 64% | OD/OS retina ratio of DHA (3 h): 146%
Compound: CC/C=C\C/C=C\C/C=C\C/C=C\C/C=C\C/C=C\CCC(=O)O [DHA, docosahexaenoic acid]
